Measurements: ChEMBL document CHEMBL1201862, “PubChem BioAssay data set” (2004)
Active and inactive are the calls of the source.

What was measured:
INS1 = assay: INS-1E survival protection against cytokine death – cell-based, luminescence, retest, dose response (AID 449756); assay type: functional; details: Rattus norvegicus;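 also: cell death triggered by IL-1 beta plus TNF-alpha plus IFN-gamma mixture; protective hits raise ATP signal compared with cytokine alone wells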
[1] = alpha-synuclein stem-loop luciferase translation blockers – H4 neuroglioma cells, luminescence, confirmation (AID 1988); assay type: functional, cell-based
[2] = target: G-protein coupled receptor 55 (Homo sapiens, UniProt Q9Y2T6); assay: selective activators of receptor GPR55 – imaging, U2OS cells, beta-arrestin-GFP redistribution, primary screen (AID 1961); assay type: functional
[3] = luciferase reporter signal suppression in cells – H4 neuroglioma cells, luminescence, dose response (AID 1990); assay type: functional, cell-based
[4] = viability loss in HEK293T cells – cell-based, cherry-picks, cytotoxicity control for HIV Vif inhibitor project, dose response (AID 652208); assay type: functional
[5] = Luminescence Cell-Based Dose Response HTS to Identify Inhibitors of 5'UTR Stem-Loop Driven Prion Protein mRNA Translation in H4 Neuroglioblastoma Cells. [Related pubchem assays: 1827 (Project Summary), 1813 (Primary HTS)]; assay type: functional
[6] = target: SWI/SNF-related matrix-associated actin-dependent regulator of chromatin subfamily A member 2 (Homo sapiens, UniProt P51531); assay: Luminescence-based cell-based high throughput dose response assay to identify activators of the function of SWI/SNF related, matrix associated, actin dependent regulator of chromatin, subfamily a, member 2 (SMARCA2, BRM).; assay type: functional
[7] = Counterscreen for activators of the function of SWI/SNF related, matrix associated, actin dependent regulator of chromatin, subfamily a, member 2 (SMARCA2, BRM): Luminescence-based cell-based high throughput dose response assay to identify non-selective compounds using the VP16 reporter assay.; assay type: functional
[8] = HGIII-sPLA2 enzyme inhibition potency – biochemical, QFRET, IC50, dose response (AID 743457);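 also: green fluorescence rise as the enzyme cleaves BODIPY PC-A2 in liposomes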
[9] = target: Matrix metalloproteinase-14 (Homo sapiens, UniProt P50281); assay: Dose Response confirmation of uHTS hits for a small molecule inhibitors of MT1-MMP activation in a fluorescence assay set 1.; assay type: functional
Protein Wnt-3a [10] = target: T1, Protein Wnt-3a (Mus musculus, UniProt P27467); assay: antagonism of Wnt3a pathway luciferase reporter – Wnt-LIGHT cells, luminescence, selectivity assay for Gli-SUFU antagonist project, dose response (AID 651570); assay type: functional; details: read-out: IC50_Mean;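 also: Wnt-LIGHT reporter cells stimulated with conditioned medium from Wnt3a-producing cells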
Beta-galactosidase = Beta-galactosidase (Escherichia coli, UniProt Q8VNN2); assay: Dose response counterscreen for EBI2 assay utilizing the enzyme, b-galactosidase.; assay type: functional
[11] = Late stage assay provider results from the probe development effort to identify inhibitors of the Plasmodium falciparum M17 Leucine Aminopeptidase (M17LAP): radiolabel-based cell-based dose response assay to identify compounds that inhibit P. falciparum growth in RBCs Set 2.; assay type: functional
[12] = target: T2, Small ubiquitin-related modifier 1 (Homo sapiens, UniProt P63165); assay: SUMO1 protein interaction blockers, potency – biochemical, fluorescence polarization, uHTS hits, dose response (AID 624382); assay type: functional; details: read-out: IC50_Mean
[13] = target: T3, Low molecular weight phosphotyrosine protein phosphatase (Homo sapiens, UniProt P24666); assay type: functional; details: read-out: IC50_Mean
T3 sequence (P24666 whole entry): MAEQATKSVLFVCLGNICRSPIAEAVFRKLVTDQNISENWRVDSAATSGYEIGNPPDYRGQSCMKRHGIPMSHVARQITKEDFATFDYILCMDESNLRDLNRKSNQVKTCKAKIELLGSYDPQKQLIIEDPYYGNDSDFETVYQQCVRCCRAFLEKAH

[14] = target: T3, Low molecular weight phosphotyrosine protein phosphatase; assay type: functional; details: read-out: IC50_Mean; remark: listed apart in the source
[15] = target: T2, Small ubiquitin-related modifier 1; assay: SUMO1 protein-protein binding blockers, potency – biochemical, FRET, dose response (AID 624383); assay type: functional; details: read-out: IC50_Mean
[16] = intracellular Trypanosoma cruzi inhibitors in host cells – cell-based, plate reader, cherry-pick samples, set 3, dose response (AID 651818); assay type: functional;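 also: compounds incubated with infected cells for about four days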
[17] = mouse fibroblast viability loss – cell-based, cherry-pick samples, set 2, cytotoxicity control for T. cruzi growth inhibitor project, dose response (AID 651817); assay type: functional; details: NIH3T3
Protein Wnt-3a [18] = target: T1, Protein Wnt-3a; assay: SAR analysis of small molecule antagonists of Gli-SUFU in a Wnt3a luminescent reporter assay.; assay type: functional
[19] = anti-trypanosomal activity in BESM host cells – imaging, CA-I/72 strain, bovine embryo skeletal muscle, dry powder, dose response (AID 651885); assay type: functional, cell-based
Large T antigen = Large T antigen (Simian virus 40, UniProt P03070); assay type: functional, Betapolyomavirus macacae;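 also: Confirmatory-stage PubChem screen for compounds that inhibit SV40 T antigen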
[20] = target: T4, Rac GTPase-activating protein 1 (Homo sapiens, UniProt Q9H0H5); assay: blockers of MgcRacGAP-driven Rac1 GTP hydrolysis – biochemical, ADP Hunter fluorescence, primary and confirmatory, confirmation (AID 624330); assay type: functional
T4 sequence (Q9H0H5 whole entry): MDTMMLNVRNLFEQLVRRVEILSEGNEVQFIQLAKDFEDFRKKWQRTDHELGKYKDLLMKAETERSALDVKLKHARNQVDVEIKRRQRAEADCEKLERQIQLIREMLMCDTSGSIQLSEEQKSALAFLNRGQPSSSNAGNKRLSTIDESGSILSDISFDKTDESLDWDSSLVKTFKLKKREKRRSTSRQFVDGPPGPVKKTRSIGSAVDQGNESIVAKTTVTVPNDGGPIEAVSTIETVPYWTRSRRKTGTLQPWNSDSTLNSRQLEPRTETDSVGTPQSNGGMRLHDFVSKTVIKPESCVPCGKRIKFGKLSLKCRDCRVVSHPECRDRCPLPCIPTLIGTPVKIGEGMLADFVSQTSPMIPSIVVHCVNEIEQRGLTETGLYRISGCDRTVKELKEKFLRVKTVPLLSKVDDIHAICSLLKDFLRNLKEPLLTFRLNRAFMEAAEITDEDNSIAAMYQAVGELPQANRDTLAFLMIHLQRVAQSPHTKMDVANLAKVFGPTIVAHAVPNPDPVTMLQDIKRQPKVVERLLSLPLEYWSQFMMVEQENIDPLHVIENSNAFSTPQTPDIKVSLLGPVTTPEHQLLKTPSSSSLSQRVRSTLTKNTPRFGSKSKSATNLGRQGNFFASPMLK

[21] = target: T5, Sentrin-specific protease 1 (Homo sapiens, UniProt Q9P0U3); assay: Dose response confirmation of small molecule inhibitors of the catalytic domain of the SUMO protease, SENP1 in a FRET assay.; assay type: functional; details: read-out: IC50_Mean
[22] = target: T5, Sentrin-specific protease 1; assay: SENP1 catalytic domain blockers, concentration series – biochemical, kinetic FRET, dose response (AID 651697); assay type: functional; details: read-out: IC50_Mean

T1 sequence (P27467 whole entry): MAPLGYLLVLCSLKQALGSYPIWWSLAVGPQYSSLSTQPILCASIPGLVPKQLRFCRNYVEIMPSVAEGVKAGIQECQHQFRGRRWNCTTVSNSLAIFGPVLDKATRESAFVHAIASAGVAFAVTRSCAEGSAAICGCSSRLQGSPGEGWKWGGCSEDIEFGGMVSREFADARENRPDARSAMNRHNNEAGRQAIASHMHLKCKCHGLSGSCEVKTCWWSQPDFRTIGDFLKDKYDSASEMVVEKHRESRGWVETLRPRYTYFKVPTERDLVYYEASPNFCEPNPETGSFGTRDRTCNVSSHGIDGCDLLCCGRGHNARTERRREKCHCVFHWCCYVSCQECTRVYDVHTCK
T2 sequence (P63165 whole entry): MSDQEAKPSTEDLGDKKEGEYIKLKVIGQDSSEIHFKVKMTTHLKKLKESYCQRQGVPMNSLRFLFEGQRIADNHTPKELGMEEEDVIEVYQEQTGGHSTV
T5 sequence (Q9P0U3 whole entry, the tested form may be a part): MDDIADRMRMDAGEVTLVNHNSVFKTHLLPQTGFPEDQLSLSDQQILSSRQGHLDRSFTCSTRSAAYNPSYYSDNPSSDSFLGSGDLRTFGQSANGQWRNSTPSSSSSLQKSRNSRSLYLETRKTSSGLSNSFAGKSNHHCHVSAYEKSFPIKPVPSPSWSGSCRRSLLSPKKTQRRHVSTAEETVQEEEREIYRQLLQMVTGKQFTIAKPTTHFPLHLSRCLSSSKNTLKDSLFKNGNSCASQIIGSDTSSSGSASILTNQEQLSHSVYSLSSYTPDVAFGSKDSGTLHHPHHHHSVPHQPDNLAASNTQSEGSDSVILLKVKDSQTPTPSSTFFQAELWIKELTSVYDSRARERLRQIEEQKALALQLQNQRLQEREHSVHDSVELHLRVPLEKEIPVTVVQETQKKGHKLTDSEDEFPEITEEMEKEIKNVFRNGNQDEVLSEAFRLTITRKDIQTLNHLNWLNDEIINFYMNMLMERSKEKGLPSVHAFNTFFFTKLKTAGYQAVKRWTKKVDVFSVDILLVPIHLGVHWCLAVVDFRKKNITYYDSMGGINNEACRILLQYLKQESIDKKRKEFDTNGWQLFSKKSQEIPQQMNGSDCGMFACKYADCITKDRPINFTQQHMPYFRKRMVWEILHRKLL
SWI/SNF-related matrix-associated actin-dependent regulator of chromatin subfamily A member 2, sequence (P51531 whole entry): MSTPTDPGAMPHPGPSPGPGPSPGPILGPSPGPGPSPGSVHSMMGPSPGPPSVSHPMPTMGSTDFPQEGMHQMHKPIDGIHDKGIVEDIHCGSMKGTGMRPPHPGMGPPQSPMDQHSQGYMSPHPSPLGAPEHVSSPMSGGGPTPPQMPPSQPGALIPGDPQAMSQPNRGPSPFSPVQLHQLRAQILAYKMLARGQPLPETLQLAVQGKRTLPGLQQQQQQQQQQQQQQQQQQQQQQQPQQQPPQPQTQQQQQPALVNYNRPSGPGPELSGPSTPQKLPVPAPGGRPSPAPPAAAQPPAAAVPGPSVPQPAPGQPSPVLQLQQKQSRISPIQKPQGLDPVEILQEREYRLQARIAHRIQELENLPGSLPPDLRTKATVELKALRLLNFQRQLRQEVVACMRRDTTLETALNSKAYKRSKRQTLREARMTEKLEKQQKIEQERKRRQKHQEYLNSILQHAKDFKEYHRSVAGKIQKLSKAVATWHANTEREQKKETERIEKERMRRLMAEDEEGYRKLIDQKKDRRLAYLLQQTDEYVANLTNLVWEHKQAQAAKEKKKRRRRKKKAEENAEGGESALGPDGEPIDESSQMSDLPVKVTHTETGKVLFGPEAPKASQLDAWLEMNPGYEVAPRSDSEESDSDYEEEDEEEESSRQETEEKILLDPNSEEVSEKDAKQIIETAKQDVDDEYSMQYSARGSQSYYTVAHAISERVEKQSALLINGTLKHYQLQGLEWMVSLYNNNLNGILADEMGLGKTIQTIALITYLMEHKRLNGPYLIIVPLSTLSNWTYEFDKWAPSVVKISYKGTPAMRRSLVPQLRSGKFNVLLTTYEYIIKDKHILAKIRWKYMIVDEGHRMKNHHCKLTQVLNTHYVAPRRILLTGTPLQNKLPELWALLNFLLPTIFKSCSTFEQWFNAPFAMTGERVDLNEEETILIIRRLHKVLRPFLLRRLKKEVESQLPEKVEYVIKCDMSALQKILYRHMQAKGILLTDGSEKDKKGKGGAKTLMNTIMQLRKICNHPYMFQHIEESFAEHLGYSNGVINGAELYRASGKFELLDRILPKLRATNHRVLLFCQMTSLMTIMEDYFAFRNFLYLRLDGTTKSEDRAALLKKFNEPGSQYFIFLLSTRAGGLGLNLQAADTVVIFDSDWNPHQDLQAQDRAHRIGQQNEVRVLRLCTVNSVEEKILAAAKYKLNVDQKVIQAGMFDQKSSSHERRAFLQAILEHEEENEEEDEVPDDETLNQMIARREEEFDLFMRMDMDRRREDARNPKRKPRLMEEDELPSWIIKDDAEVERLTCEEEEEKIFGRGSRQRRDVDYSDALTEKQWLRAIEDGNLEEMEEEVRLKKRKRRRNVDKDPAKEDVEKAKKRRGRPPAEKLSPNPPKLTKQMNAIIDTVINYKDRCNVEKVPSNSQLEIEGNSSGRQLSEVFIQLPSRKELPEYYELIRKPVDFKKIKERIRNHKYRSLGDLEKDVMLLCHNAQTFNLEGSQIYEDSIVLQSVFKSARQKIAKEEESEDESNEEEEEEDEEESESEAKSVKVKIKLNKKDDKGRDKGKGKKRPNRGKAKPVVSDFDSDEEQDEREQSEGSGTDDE
G-protein coupled receptor 55, sequence (Q9Y2T6 whole entry): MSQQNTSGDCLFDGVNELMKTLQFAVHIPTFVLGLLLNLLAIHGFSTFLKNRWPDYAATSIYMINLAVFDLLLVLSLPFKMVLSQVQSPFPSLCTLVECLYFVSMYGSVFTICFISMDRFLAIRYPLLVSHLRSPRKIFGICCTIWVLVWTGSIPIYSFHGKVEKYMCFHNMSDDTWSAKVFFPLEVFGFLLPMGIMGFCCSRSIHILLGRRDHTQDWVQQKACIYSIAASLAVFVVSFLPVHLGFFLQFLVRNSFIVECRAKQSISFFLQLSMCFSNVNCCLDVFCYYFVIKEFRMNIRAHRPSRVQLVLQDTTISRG
Beta-galactosidase, sequence (Q8VNN2 whole entry): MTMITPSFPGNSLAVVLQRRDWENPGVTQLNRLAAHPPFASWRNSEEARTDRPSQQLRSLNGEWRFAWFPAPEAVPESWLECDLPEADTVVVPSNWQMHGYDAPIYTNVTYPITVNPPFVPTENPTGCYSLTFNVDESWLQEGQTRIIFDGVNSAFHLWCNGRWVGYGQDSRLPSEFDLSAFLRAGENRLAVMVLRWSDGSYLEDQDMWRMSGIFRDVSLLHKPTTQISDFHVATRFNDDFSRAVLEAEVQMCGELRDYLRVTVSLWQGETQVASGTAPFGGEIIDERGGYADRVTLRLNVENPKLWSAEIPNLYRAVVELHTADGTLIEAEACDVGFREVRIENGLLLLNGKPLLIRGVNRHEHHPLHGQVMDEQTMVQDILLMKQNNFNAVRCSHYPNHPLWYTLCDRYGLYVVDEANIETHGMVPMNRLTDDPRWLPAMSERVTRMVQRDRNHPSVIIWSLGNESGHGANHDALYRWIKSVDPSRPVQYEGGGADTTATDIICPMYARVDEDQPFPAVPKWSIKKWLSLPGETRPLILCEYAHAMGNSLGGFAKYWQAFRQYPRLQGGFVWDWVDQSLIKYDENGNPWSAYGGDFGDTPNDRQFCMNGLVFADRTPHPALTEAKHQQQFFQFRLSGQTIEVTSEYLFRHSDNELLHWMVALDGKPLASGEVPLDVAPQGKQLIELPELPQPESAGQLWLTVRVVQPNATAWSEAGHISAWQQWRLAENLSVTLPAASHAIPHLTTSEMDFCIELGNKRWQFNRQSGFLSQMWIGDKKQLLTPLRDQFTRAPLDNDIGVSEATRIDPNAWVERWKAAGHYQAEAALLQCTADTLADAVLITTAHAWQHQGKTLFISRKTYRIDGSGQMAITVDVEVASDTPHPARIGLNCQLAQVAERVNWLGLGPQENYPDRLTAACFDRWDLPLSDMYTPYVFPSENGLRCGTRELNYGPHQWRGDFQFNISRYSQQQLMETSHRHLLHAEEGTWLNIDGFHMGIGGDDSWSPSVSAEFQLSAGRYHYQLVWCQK
Large T antigen, sequence (P03070 whole entry): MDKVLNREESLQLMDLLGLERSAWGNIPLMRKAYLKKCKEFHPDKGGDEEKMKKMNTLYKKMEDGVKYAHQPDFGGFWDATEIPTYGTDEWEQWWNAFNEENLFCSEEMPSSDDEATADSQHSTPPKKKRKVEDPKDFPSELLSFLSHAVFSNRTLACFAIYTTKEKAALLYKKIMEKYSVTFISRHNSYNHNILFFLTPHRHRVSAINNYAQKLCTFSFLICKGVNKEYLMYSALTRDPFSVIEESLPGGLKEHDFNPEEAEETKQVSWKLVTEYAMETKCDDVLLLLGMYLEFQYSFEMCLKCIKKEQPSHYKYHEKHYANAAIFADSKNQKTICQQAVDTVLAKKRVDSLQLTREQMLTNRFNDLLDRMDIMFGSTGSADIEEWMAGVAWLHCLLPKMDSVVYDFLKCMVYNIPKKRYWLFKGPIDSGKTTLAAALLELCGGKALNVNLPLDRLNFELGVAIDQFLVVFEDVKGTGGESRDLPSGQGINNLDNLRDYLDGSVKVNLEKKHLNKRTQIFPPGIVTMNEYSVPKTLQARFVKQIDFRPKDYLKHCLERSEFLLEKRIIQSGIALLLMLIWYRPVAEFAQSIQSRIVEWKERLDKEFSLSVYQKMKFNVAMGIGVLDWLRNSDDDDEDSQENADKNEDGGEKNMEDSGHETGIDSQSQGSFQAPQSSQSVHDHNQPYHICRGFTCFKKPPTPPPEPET

For `Nc1c(C(=O)Nc2ccc(S(=O)(=O)N3CCCC3)cc2)sc2nc3ccc(OC(F)(F)F)cc3cc12`, the AC50 (INS1) was 3.5 µM (active), the EC50 [1] was 2.05 µM (active) and the EC50 [2] was 3.77 µM (active). For the same compound, the EC50 [3] was 5.71 µM (inconclusive), the AC50 [4] was 15.7 µM (active) and the EC50 [5] was 4.12 µM (active).
With `Cc1ccc2nc(O)c3cc(C(=O)N(C)Cc4ccco4)sc3c2c1` the EC50 [6] was > 91.2 µM (inactive) and the EC50 [7] was > 91.2 µM (inactive).
For `COc1ccc(NC(=O)NNC(=O)c2ccc3ccccc3c2O)c(OC)c1`, the IC50 [8] was > 122 µM (inactive).
For `C[N+]1=C(/C=C/Nc2ccccc2)C(C)(C)c2ccccc21`, the IC50 [9] was 17.4 µM (active) and the IC50 (Protein Wnt-3a [10]) was 50 µM (inactive).
In the case of `COc1ccc2cc(C(=O)N3CCN(c4cccc(C)c4C)CC3)[nH]c2c1`, the IC50 (Beta-galactosidase) is reported as > 80 µM (inactive).
For `CCCCCCCCCC(=O)NO`, the IC50 [11] was 27 µM (inactive).
For `Cc1cc(C)c2nc3sc(=Cc4ccc(-c5ccccc5C(=O)O)o4)c(=O)n3c2c1`, the IC50 [12] was > 66.6 µM (inactive), the IC50 [13] was 62.9 µM (inactive) and the IC50 [14] was 26.5 µM (inactive). For the same compound, the IC50 [15] was 5.88 µM (active).
For `Cc1ccc(S(=O)(=O)Nc2ccc3c(c2)CC(=O)N([C@H](C)CO)C[C@@H](C)[C@@H](CN(C)Cc2ccc(Cl)c(Cl)c2)O3)cc1`, the AC50 [16] was 3.29 µM (active) and the AC50 [17] was 9.47 µM (active).
With `O=C(Nc1cc(N2CCCCC2)ncn1)c1cccc(F)c1` the IC50 (Protein Wnt-3a [18]) was > 21.8 µM (inactive).
In the case of `C[C@H]1CN([C@@H](C)CO)C(=O)c2cccc(NC(=O)c3ccncc3)c2O[C@@H]1CN(C)Cc1ccc(C(=O)Nc2ccccc2N)cc1`, the IC50 [19] is reported as > 20 µM (inactive).
With `NC(=O)N/N=C/c1ccc(N2CCOCC2)s1` the IC50 (Large T antigen) was 13.8 µM (active), the IC50 [20] was 40.4 µM (active) and the IC50 [21] was 11.1 µM (active). The IC50 [22] was 9.07 µM (active).
